Measurements: patent US6403639B1, “2,3-dihydrobenzofuran derivatives” (Chugai Seiyaku Kabushiki Kaisha, priority 1997, dated 2002)
Where two headings read alike, the source gives them in different places.

Legend:
[1] = tested on: porcine kidney-derived LLC-PK1 cells; test: Protective effect against cell injury of porcine kidney-derived LLC-PK1 cells (2), oxidized LDL-induced LDH leakage; type: cell-based
Experimental: The oxidized LDL was prepared by placing 1 mg/ml of rabbit LDL in PBS (−) in the presence of 10 μM CuSO4 at 37° C. for 24 hours. Cell cultures were prepared by inoculating 1.25×10^4 cells/250 μl/well on a 48-well plate using M199 medium containing 3% FBS. Test compounds were dissolved or suspended in ethanol and added at a ratio of 1.25 μl/well 16 hours before or immediately before addition of the oxidized LDL to a concentration of 0.1, 1 or 10 μM in each well. The oxidized LDL was diluted twice with physiological saline and then added to cells at 62.5 μl/well to a concentration of 100 μg/ml and the cells were incubated for 6 hours after addition of the oxidized LDL. After the incubation, 162.5 μl of the culture medium was collected from each of the wells and measured for the lactate dehydrogenase (LDH) activity (Lactate Dehydrogenase (LD-L): SIGNA DIAGNOSTICS) which has leaked into the culture medium.
(§1) The cytoprotective effect was expressed as a % cytoprotection where the effect in wells containing the oxidized LDL but without any test compound is 0% and the effect in wells containing physiological saline in place of the oxidized LDL is 100%.
For the purpose of evaluating in vitro cytoprotective effect of the compounds of the present invention, protective effect against cell injury of porcine kidney-derived LLC-PK1 cells (ATCC-CRL-13921) induced by oxidized low-density lipoprotein (oxidized LDL) was examined in the same manner as in Test example 1.
Preparation of oxidized LDL and conditions for cell culture and addition of test compounds were the same as those in Test example 1, except that the oxidized LDL was not diluted with physiological saline and added to cells at 25 μl/well to a concentration of 91 μg/ml and the cells were incubated for 6 hours after addition of oxidized LDL. After the incubation, 150 μl of the culture medium was collected from each of the wells and measured for the lactate dehydrogenase (LDH) activity (Lactate Dehydrogenase (LD-L): SIGMA DIAGNOSTICS) which has leaked in the culture medium.

[2] = tested on: cultured mesangial cells; test: Protective effect against cell injury of cultured mesangial cells, oxidized LDL-induced LDH leakage; type: cell-based, rats
Experimental: For the purpose of evaluating in vitro cytoprotective effect of the compounds of the present invention, protective effect against cell injury of cultured mesangial cells induced by oxidized low-density lipoprotein (LDL) was examined. The cells used were subcultures after 4 to 6 passages of the primary cultures of mesangial cells prepared from kidney of 4-week-old SD-strain male rats (Nippon Charles River Corp.).
The oxidized LDL was prepared by placing 1 mg/ml of rabbit LDL in PBS (−) in the presence of 10 μM CuSO4 at 37° C. for 24 hours. Cell cultures were prepared by inoculating 2.5×10^4 cells/250 μl/well on a 48-well plate using RPMI1640 medium containing 20% FBS. Immediately before addition of test compounds, the medium was replaced with RPMI1640 free from FBS. Test compounds were dissolved or suspended in ethanol and added at 1.25 μl/well 16 hours before or immediately before addition of the oxidized LDL to a concentration of 1, 3 or 10 μM in each well. Unlike Test example 1, the oxidized LDL was not diluted with physiological saline and added to cells at 25 μl/well to a concentration of 91 μg/ml and the cells were incubated for 8 hours after addition of the oxidized LDL. After the incubation, 150 μl of the culture medium was collected from each of the wells and measured for the lactate dehydrogenase activity (Lactate Dehydrogenase (LD-L): SIGMA DIAGNOSTICS) which has leaked in the culture medium.
as §1

[3] = Sus scrofa, LLC-PK1; 0.1 μM; test compounds added 16 hours before addition of oxidized LDL; oxidized LDL 91 μg/ml, 6 hours; read-out: % cytoprotection 1)
[4] = Sus scrofa, LLC-PK1; 0.1 μM; test compounds added immediately before addition of oxidized LDL; oxidized LDL 91 μg/ml, 6 hours; read-out: % cytoprotection 2)
[5] = Sus scrofa, LLC-PK1; 1 μM; test compounds added 16 hours before addition of oxidized LDL; oxidized LDL 91 μg/ml, 6 hours; read-out: % cytoprotection 1)
[6] = Sus scrofa, LLC-PK1; 1 μM; test compounds added immediately before addition of oxidized LDL; oxidized LDL 91 μg/ml, 6 hours; read-out: % cytoprotection 2)
[7] = Sus scrofa, LLC-PK1; 10 μM; test compounds added 16 hours before addition of oxidized LDL; oxidized LDL 91 μg/ml, 6 hours; read-out: % cytoprotection 1)
[8] = Sus scrofa, LLC-PK1; 10 μM; test compounds added immediately before addition of oxidized LDL; oxidized LDL 91 μg/ml, 6 hours; read-out: % cytoprotection 2)
[9] = Rattus norvegicus, Mesangial cell; 1 μM; test compounds added 16 hours before addition of oxidized LDL; oxidized LDL 91 μg/ml, 8 hours; read-out: % cytoprotection 1)
[10] = Rattus norvegicus, Mesangial cell; 1 μM; test compounds added immediately before addition of oxidized LDL; oxidized LDL 91 μg/ml, 8 hours; read-out: % cytoprotection 2)
[11] = Rattus norvegicus, Mesangial cell; 3 μM; test compounds added 16 hours before addition of oxidized LDL; oxidized LDL 91 μg/ml, 8 hours; read-out: % cytoprotection 1)
[12] = Rattus norvegicus, Mesangial cell; 3 μM; test compounds added immediately before addition of oxidized LDL; oxidized LDL 91 μg/ml, 8 hours; read-out: % cytoprotection 2)

SMILES | inhibition at 0.1 µM [1, 3] | inhibition at 0.1 µM [1, 4] | inhibition at 1 µM [1, 5] | inhibition at 1 µM [1, 6] | inhibition at 10 µM [1, 7] | inhibition at 10 µM [1, 8] | inhibition at 1 µM [2, 9] | inhibition at 1 µM [2, 10] | inhibition at 3 µM [2, 11] | inhibition at 3 µM [2, 12]
CC1(C)Cc2c(c(C(C)(C)C)cc(O)c2C(C)(C)C)O1 [Example 4, 4,7-Di-t-butyl-5-hydroxy-2,2-dimethyl-2,3-dihydrobenzofuran] | 11.3% | 14.4% | 100% | 99% | 98.3% | 99.8% | 31.1 ± 5.4% | 32.5 ± 1.9% | 66.4 ± 5.9% | 54.3 ± 9.7%
CC(C)(C)c1cc2c(cc1O)CC1(CCCCCC1)O2 [Example 7, 6-t-Butyl-5-hydroxy-2,3-dihydrobenzofuran-2-spiro-1′-cycloheptane] | 19.1% | 14.7% | 104% | 104% | 105% | 105% | 19.3 ± 2.8% | 22 ± 1.9% | 18.1 ± 4.1% | 24.5 ± 0.8%
CCCc1c(O)c(C(C)(C)C)cc2c1CC1(CCCCCC1)O2 [Example 9, 6-t-Butyl-5-hydroxy-4-n-propyl-2,3-dihydrobenzofuran-2-spiro-1′-cycloheptane] | 12.9% | 11.5% | 47.7% | 58.9% | 104% | 104% | 14.4 ± 5.1% | 29.6 ± 2% | 56.2 ± 9.3% | 46.3 ± 1.7%
CC(C)Cc1c(O)c(C(C)(C)C)cc2c1CC1(CCCCCC1)O2 [Example 11, 6-t-Butyl-5-hydroxy-4-(2-methylpropyl)-2,3-dihydrobenzofuran-2-spiro-1′-cycloheptane] | -2.7% | -20.4% | 53.4% | 88.7% | 102% | 103% | -3.5 ± 9.1% | 4.8 ± 5.1% | 13.8 ± 7.8% | 41.3 ± 1%
C=CC(C)c1c(O)c(C(C)(C)C)cc2c1CC1(CCCCCC1)O2 (stereo not shown) [Example 12, 6-t-Butyl-5-hydroxy-4-(1-methyl-2-propenyl)-2,3-dihydrobenzofuran-2-spiro-1′-cycloheptane] | -15.5% | -8.4% | 77.9% | 79.4% | 102% | 102% | 11.8 ± 2.6% | 17.4 ± 4% | 37.9 ± 8.3% | 42.8 ± 3.7%
CCC(C)c1c(O)c(C(C)(C)C)cc2c1CC1(CCCCCC1)O2 (stereo not shown) [Example 13, 6-t-Butyl-5-hydroxy-4-(1-methylpropyl)-2,3-dihydrobenzofuran-2-spiro-1′-cycloheptane] | 5.5% | 3.4% | 13.6% | 9.9% | 100% | 100% | 1.7 ± 2.9% | -4.3 ± 5.1% | 18.4 ± 9.2% | 11.1 ± 4.3%
Cc1c(O)c(C(C)(C)C)cc2c1CC1(CCCCCC1)O2 [Example 14-(1), 6-t-Butyl-5-hydroxy-4-methyl-2,3-dihydrobenzofuran-2-spiro-1′-cycloheptane] | -6.5% | -9.2% | 103% | 101% | 104% | 103% | 19.7 ± 7.7% | 34.4 ± 1.5% | 59.3 ± 2.1% | 43.2 ± 2.8%
